In publication PMC11994961, “In Vivo pharmacokinetic interactions of ribociclib with rivaroxaban and apixaban in rats: implications for increased drug exposure and dose adjustments” (Frontiers in Pharmacology, 2025):
Like-named read-outs stand apart in the source and are kept apart here.

Legend:
[1] = set-up: method as in Wang et al., 2023; details: rats, with almonertinib; ref Wang et al., 2023; cited from earlier work
[2] = set-up: method as in Hindley et al., 2023; details: ref Hindley et al., 2023; cited from earlier work
[3] = Pharmacokinetic study of apixaban in rats, alone and after ribociclib (UPLC-MS/MS plasma levels); type: in vivo, Sprague-Dawley rats; details: for AUC(0-inf) / Cmax / Tmax / half-life / CL/F / MRT inf / MRT last / Vd/F: po, 0.5 mg/kg; for CL/F: read-out: CLz/F (converted); for MRT inf: read-out: MRT0- ∞; for MRT last: read-out: MRT0-t; for Vd/F: read-out: Vz/F
Experimental: Experimental animals were randomly divided into nine groups (n = 6, Table 1). Ribociclib was suspended in methylcellulose (MC), rivaroxaban was prepared in hydroxypropyl methylcellulose (HPMC), and apixaban was suspended in 5% DMSO in water. To achieve steady-state blood concentrations, a drug typically requires five to seven half-lives. Based on this principle, ribociclib was administered orally for eight consecutive days, while rivaroxaban and apixaban were administered orally for five consecutive days to ensure steady-state concentrations were reached before further analysis.
Approximately 0.1 mL of blood was collected into heparinized tubes via the orbitalat specified time points before and after the final drug administration. For apixaban, blood samples were collected at 0, 0.083, 0.167, 0.25, 0.333, 0.5, 0.75, 1, 3, 5, 7, 10, and 12 h. For rivaroxaban, sampling was conducted at 0, 0.167, 0.333, 0.5, 0.75, 1.5, 2, 3, 4, 5, 6, 8, 10, 12, and 24 h. For ribociclib, samples were taken at 0, 0.5, 1, 2, 4, 5, 6, 8, 10, 12, 24, and 48 h. Blood samples were centrifuged at 3,500 rpm for 10 min, and the supernatant was collected and stored at −80°C until processing for UPLC-MS/MS.
Apixaban and rivaroxaban concentrations in plasma samples were determined using our previously established UPLC-MS/MS method ([Wang et al., 2023]). Ribociclib concentrations were quantified using an LC-30A UPLC system (Shimadzu, Kyoto, Japan) coupled with a Sciex Triple Quad 5500 tandem quadrupole mass spectrometer (AB Sciex, Framingham, MA, United States) equipped with an electrospray ionization interface. Chromatographic separation was performed using a Welch Boltimate column (2.1 mm × 100 mm, 2.7 μm) maintained at 40°C. The mobile phase was composed of water containing 0.1% formic acid (phase A) and acetonitrile (phase B). The flow rate was held constant at 0.3 mL/min. The gradient elution protocol was as follows: 0–2.5 min, 60% B; 2.5–3.5 min, 60%–90% B; 3.5–5.5 min, 90% B; 5.5–5.6 min, 90%–60% B; 5.6–6.6 min, 60% B. The injection volume was 1 μL.
Pharmacokinetic parameters were calculated based on a non-compartmental model using DAS 2.1.1 Software (Mathematical Pharmacology Professional Committee of China, Shanghai, China). The area under the concentration–time curve (AUC), maximum plasma concentration (Cmax), time to maximum plasma concentration (Tmax), the time required to eliminate half of the plasma drug concentration (t1/2), clearance of drug plasma volume per unit time (CLz/F), apparent volume distribution (Vz/F), mean residence time (MRT) and the absorption rate constant (Ka) are all expressed as mean ± standard deviation (SD). SPSS 25.0 statistical software (SPSS Inc., Chicago, IL, United States) was applied to statistically analyze the mainpharmacokinetic parameters. Shapiro-Wilk test was used to assess whether the data were normally distributed, t test was used for parameters conforming to the normal distribution, and Mann-Whitney U test was used for parameters not conforming to the normal distribution. Statistical comparisons were conducted using a analysis of variance, t-test or nonparametric rank-sum test depending on the data type. A P-value <0.05 was deemed statistically significant.

[4] = API 0.5 mg/kg after multiple doses of RIBO vs API alone
[5] = Sprague-Dawley, rat, plasma, API 0.5 mg/kg after RIBO 60 mg/kg for 8 days
[6] = Sprague-Dawley, rat, plasma, oral API 0.5 mg/kg alone

- AUC(0-t) ([3]; API 0.5 mg/kg after RIBO 60 mg/kg for 8 days): 608.21 ± 196.17 ng·h/mL
- CLz/F was decreased by [3, 4]: 32.23%
- difference in AUC0-t [3, 4]: not statistically significant
- difference in Cmax [3, 4]: not statistically significant
- difference in Tmax [3, 4]: not statistically significant
- increase of MRT0- ∞ [3, 4]: 61.41%
- increase of MRT0-t [3, 4]: 14.45%
- increase of t1/2z [3, 4]: 115.90%
- AUC(0-t) ([3]; Sprague-Dawley, rat, plasma, oral API 0.5 mg/kg alone, read-out: AUC0-t): 409 ± 55.3 ng·h/mL
- AUC(0-inf) [3, 5]: 675 ± 221 ng·h/mL
- Cmax [3, 5]: 156 ± 42.4 ng/mL
- Tmax [3, 5]: 0.75 ± 0.16 h
- half-life [3, 5]: 5.16 ± 3.22 h
- CL/F [3, 5]: 13.7 mL/min/kg
- MRT inf [3, 5]: 4.81 ± 2.07 h
- MRT last [3, 5]: 3.01 ± 0.3 h
- Vd/F [3, 5]: 5.57 ± 2.63 L/kg
- AUC(0-inf) [3, 6]: 420 ± 54.2 ng·h/mL
- Cmax [3, 6]: 140 ± 29.4 ng/mL
- Tmax [3, 6]: 0.88 ± 0.14 h
- half-life [3, 6]: 2.39 ± 0.53 h
- CL/F [3, 6]: 20.2 mL/min/kg
- MRT inf [3, 6]: 2.98 ± 0.32 h
- MRT last [3, 6]: 2.63 ± 0.1 h
- Vd/F [3, 6]: 4.16 ± 1.07 L/kg
Structure (SMILES): COc1ccc(-n2nc(C(N)=O)c3c2C(=O)N(c2ccc(N4CCCCC4=O)cc2)CC3)cc1 [API, apixaban]
- increase in AUC [1]: over three fold increases
- increase in Cmax [1]: over three fold increases
- plasma protein binding [2]: approximately 87%
